Measurements reported in ChEMBL document CHEMBL1133906, “Leishmanicidal activity of some stilbenoids and related heterocyclic compounds” (Bioorg Med Chem Lett, 2001).
In brackets after ≈: the same amount, converted by molar mass.

How the values were obtained:
Format in all cases: functional, organism-based
[1] = tested on: Leishmania amazonensis; experiment: In vitro inhibitory activity against Leishmania amazonensis (PH8)
[2] = tested on: Leishmania braziliensis; experiment: In vitro inhibitory activity against Leishmania braziliensis (M2903)
[3] = tested on: Leishmania donovani; experiment: In vitro inhibitory activity against Leishmania donovani (PP75)

Row | IC50 [1] [µg/mL] | IC50 [2] [µg/mL] | IC50 [3] [µg/mL] | SMILES
1 | ≥ 100 | ≥ 100 | ≥ 100 | OC1(Cc2ccc(Cl)cc2)c2ccccc2C2=NCCN21 (stereo unspecified)
2 | ≥ 100 | ≥ 100 | ≥ 100 | COc1ccc(CC2(O)c3ccccc3C3=NCCCN32)cc1OC (stereo unspecified)
3 | ≥ 100 | ≥ 100 | ≥ 100 | COc1ccc(CC(=O)c2ccccc2C(=O)N2CCCCC2)cc1
4 | ≥ 100 | ≥ 100 | ≥ 100 | COc1ccc(CC2(O)c3ccccc3C(=O)N2NC(C)(C)C)cc1 (stereo unspecified)
5 | ≥ 100 | ≥ 100 | 52 (≈ 203 µM) | O=C1O/C(=C\c2ccc(Cl)cc2)c2ccccc21
6 | ≥ 100 | ≥ 100 | ≥ 100 | OC1(Cc2ccc(Cl)cc2)c2ccccc2C2=NCCCN21 (stereo unspecified)
7 | ≥ 100 | ≥ 100 | ≥ 100 | COc1cc(CC2(O)c3ccccc3C3=NCCCN32)cc(OC)c1OC (stereo unspecified)
8 | ≥ 100 | ≥ 100 | ≥ 100 | OC1(Cc2ccc3c(c2)OCO3)c2ccccc2C2=NCCCN21 (stereo unspecified)
9 | ≥ 100 | ≥ 100 | ≥ 100 | COc1ccc(CC2(O)c3ccccc3C3=NCCN32)cc1 (stereo unspecified)
10 | ≥ 100 | ≥ 100 | ≥ 100 | Oc1nnc(Cc2ccc(Cl)cc2)c2ccccc12
11 | ≥ 100 | ≥ 100 | ≥ 100 | COc1ccc(CC2(O)c3ccccc3C3=NCCN32)cc1OC (stereo unspecified)
12 | ≥ 100 | ≥ 100 | ≥ 100 | OC1(Cc2ccc3c(c2)OCO3)c2ccccc2C2=NCCN21 (stereo unspecified)
13 | 25 (≈ 70.3 µM) | 52 (≈ 146 µM) | 28 (≈ 78.7 µM) | O=C(C(=O)c1ccccc1C(=O)N1CCCCC1)c1ccc(Cl)cc1
14 | ≥ 100 | ≥ 100 | ≥ 100 | COc1ccc(Cc2nnc(O)c3ccccc23)cc1
15 | 60 (≈ 227 µM) | 60 (≈ 227 µM) | 60 (≈ 227 µM) | OC1(Cc2ccccc2)c2ccccc2C2=NCCN21 (stereo unspecified)
16 | 45 (≈ 162 µM) | 45 (≈ 162 µM) | 45 (≈ 162 µM) | OC1(Cc2ccccc2)c2ccccc2C2=NCCCN21 (stereo unspecified)
17 | ≥ 100 | ≥ 100 | ≥ 100 | O=C(Cc1ccc(Cl)cc1)c1ccccc1C(=O)N1CCCCC1
18 | ≥ 100 | ≥ 100 | ≥ 100 | COc1ccc(CC2(O)c3ccccc3C3=NCCCN32)cc1 (stereo unspecified)
19 | ≥ 100 | ≥ 100 | 64 (≈ 225 µM) | Cn1nc(Cc2ccc(Cl)cc2)c2ccccc2c1=O
20 | ≥ 100 | ≥ 100 | ≥ 100 | COc1cc(CC2(O)c3ccccc3C3=NCCN32)cc(OC)c1OC (stereo unspecified)

The remaining lines, values behind:

Row | SMILES | IC50 [1] [µg/mL] | IC50 [2] [µg/mL] | IC50 [3] [µg/mL]
21 | COc1ccc(Cc2nn(C)c(=O)c3ccccc23)cc1 | ≥ 100 | ≥ 100 | ≥ 100
22 | O=C(Cc1ccc2c(c1)OCO2)c1ccccc1C(=O)N1CCCCC1 | ≥ 100 | ≥ 100 | ≥ 100
23 | O=C(C(=O)c1ccccc1C(=O)N1CCCCC1)c1ccc2c(c1)OCO2 | ≥ 100 | ≥ 100 | ≥ 100
24 | COc1ccc(/C=C2\OC(=O)c3ccccc32)cc1OC | ≥ 100 | ≥ 100 | ≥ 100
25 | O=C(C(=O)c1ccccc1C(=O)N1CCCCC1)c1ccccc1 | 75 (≈ 233 µM) | 75 (≈ 233 µM) | 75 (≈ 233 µM)
26 | COc1ccc(C(=O)C(=O)c2ccccc2C(=O)N2CCCCC2)cc1OC | ≥ 100 | ≥ 100 | ≥ 100
27 | COc1cc(/C=C2\OC(=O)c3ccccc32)cc(OC)c1OC | 52 (≈ 166 µM) | ≥ 100 | ≥ 100
28 | Cn1nc(Cc2ccccc2)c2ccccc2c1=O | ≥ 100 | ≥ 100 | ≥ 100
29 | O=C(Cc1ccccc1)c1ccccc1C(=O)N1CCCCC1 | ≥ 100 | ≥ 100 | ≥ 100
30 | O=C1O/C(=C\c2ccc3c(c2)OCO3)c2ccccc21 | ≥ 100 | ≥ 100 | ≥ 100
31 | COc1cc(Cc2nnc(O)c3ccccc23)cc(OC)c1OC | ≥ 100 | ≥ 100 | ≥ 100
32 | COc1cc(Cc2nn(C)c(=O)c3ccccc23)cc(OC)c1OC | ≥ 100 | ≥ 100 | ≥ 100
33 | COc1ccc(/C=C2/c3ccccc3C(=O)N2NC(C)(C)C)cc1 | ≥ 100 | ≥ 100 | ≥ 100
34 | Oc1nnc(Cc2ccc3c(c2)OCO3)c2ccccc12 | ≥ 100 | ≥ 100 | ≥ 100
35 | O=c1[nH]nc(Cc2ccccc2)c2ccccc12 | ≥ 100 | ≥ 100 | ≥ 100
36 | COc1ccc(CCc2cc(O)cc(OC)c2)cc1 | ≥ 100 | ≥ 100 | ≥ 100

Row | SMILES | IC50 [1] [µg/mL] | IC50 [2] [µg/mL] | IC50 [3] [µg/mL]
37 | COc1ccc(C(=O)C(=O)c2ccccc2C(=O)N2CCCC2)cc1 | ≥ 100 | ≥ 100 | ≥ 100
38 | COc1ccc(/C=C2\OC(=O)c3ccccc32)cc1 | ≥ 100 | ≥ 100 | ≥ 100
39 | COc1ccc(Cc2nn(C)c(=O)c3ccccc23)cc1OC | ≥ 100 | ≥ 100 | ≥ 100
40 | COc1cc(C(=O)C(=O)c2ccccc2C(=O)N2CCCCC2)cc(OC)c1OC | 28 (≈ 68.1 µM) | 52 (≈ 126 µM) | 52 (≈ 126 µM)
41 | COC(=O)c1c(CCc2ccc(OC)cc2)cc(O)cc1OC | ≥ 100 | ≥ 100 | ≥ 100
42 | O=C1O/C(=C\c2ccccc2)c2ccccc21 | 45 (≈ 202 µM) | 45 (≈ 202 µM) | 45 (≈ 202 µM)
43 | COc1ccc(CCc2cc(O)cc(OC)c2C(=O)N2CCCCC2)cc1 | 7 (≈ 18.9 µM) | 10 (≈ 27.1 µM) | 7 (≈ 18.9 µM)
44 | CCN(CC)C(=O)c1ccccc1C(=O)C(=O)c1ccc(OC)cc1 | 75 (≈ 221 µM) | 75 (≈ 221 µM) | 75 (≈ 221 µM)
45 | COc1cc(CC(=O)c2ccccc2C(=O)N2CCCCC2)cc(OC)c1OC | 10 (≈ 25.2 µM) | 7 (≈ 17.6 µM) | 20 (≈ 50.3 µM)
46 | COc1ccc(Cc2nnc(O)c3ccccc23)cc1OC | ≥ 100 | ≥ 100 | ≥ 100
47 | COc1ccc(C(=O)C(=O)c2ccccc2C(=O)N2CCCCC2)cc1 | ≥ 100 | 80 (≈ 228 µM) | 80 (≈ 228 µM)
48 | COc1ccc(CC(=O)c2ccccc2C(=O)N2CCCCC2)cc1OC | ≥ 100 | ≥ 100 | ≥ 100
49 | COc1ccc(CCc2cc(OC(C)=O)cc(OC)c2C(=O)O)cc1 | 62 (≈ 180 µM) | 62 (≈ 180 µM) | 62 (≈ 180 µM)
50 | Cn1nc(Cc2ccc3c(c2)OCO3)c2ccccc2c1=O | ≥ 100 | ≥ 100 | ≥ 100
51 | COc1ccc(CCc2cc(O)cc(OC)c2C(=O)O)cc1 [ISONOTHOLAENIC ACID] | 32 (≈ 106 µM) | 32 (≈ 106 µM) | 32 (≈ 106 µM)
52 | N=C(N)c1ccc(OCCCCCOc2ccc(C(=N)N)cc2)cc1 [PENTAMIDINE] | 1.3 (≈ 3.82 µM) | 1.3 (≈ 3.82 µM) | 1.3 (≈ 3.82 µM)
